This note sets out measurements from paper PMC8294059, “Identification and Immune Assessment of T Cell Epitopes in Five Plasmodium falciparum Blood Stage Antigens to Facilitate Vaccine Candidate Selection and Optimization” (Frontiers in Immunology, 2021).

Where a SMILES comes first, the peptide text is derived from it.

In one experiment the target is HLA-A*0101 (Homo sapiens, UniProt P04439, A114D/A174V/A182V/D101N/D185E/E176A/E190D/L180R/Q94H/R68K/S129P/T187R/V100A/V91M/W191G). The experiment is described as follows: biochemical.
Conditions: not given
The format is binding. The method, then:
(§1) A cell-free class I HLA binding assay that allows for in vitro quantification of peptide-HLA binding affinity in a competition format was used. In this assay, a fluorescently labeled, high binding, control peptide is loaded onto 384-well ½-area plates along with unlabeled experimental peptides. To remove endogenous peptides and render the HLA A and B molecules receptive to binding, HLA is heated at 53°C for 15 minutes and immediately added to the assay. The mixture is then allowed to stand for three days. Once the mixture has reached steady equilibrium (at 72 hours), displacement of the high binding control peptide is measured through fluorescence polarization. Binding of experimental peptides is expressed as the percent inhibition of the labeled control peptide (experimental fluorescence / control fluorescence, multiplied by 100). The percent inhibition values for each experimental peptide (across a range of molar concentrations) are used to calculate the concentration which inhibits 50% of the labeled control peptide’s specific binding. This value is referred to as the peptide’s IC50.
In general, IC50 refers to the point on the concentration scale where inhibition reaches its midpoint. `C[C@@H](O)[C@H](NC(=O)[C@@H](N)CC(=O)O)C(=O)N[C@@H](CC(=O)O)C(=O)N[C@@H](CO)C(=O)N[C@@H](CC(N)=O)C(=O)N[C@@H](Cc1c[nH]cn1)C(=O)N[C@H](C(=O)N1CCC[C@H]1C(=O)N[C@@H](CO)C(=O)N[C@@H](CC(N)=O)C(=O)O)[C@@H](C)O` [RH5_280] (H-DTDSNHTPSN-OH) returned an IC50 of 5880 nM.

The same experiment, now with this note: allele A*0101; cell-free competition, fluorescence polarization at 72 hours; Non-binder = no dose-dependent inhibition.
LSDTLQLHED [EBA175_0881]: the “IC50 (nM)” value is given as “Non-binder”.

The experiment is the same for the next values; noted with them: allele A*0101; cell-free competition, fluorescence polarization at 72 hours; Non-binder = no dose-dependent inhibition; read-out: IC50.
On to `CC(C)C[C@H](NC(=O)[C@H](CCCCN)NC(=O)[C@H](CC(=O)O)NC(=O)[C@H](CC(C)C)NC(=O)[C@H](CC(N)=O)NC(=O)[C@H](CC(=O)O)NC(=O)[C@@H](NC(=O)[C@@H](N)C(C)C)[C@@H](C)O)C(=O)N[C@@H](CO)C(=O)N[C@@H](CC(N)=O)C(=O)O` [EBA175_1465] (H-VTDNLDKLSN-OH), for which the IC50 was 188000 nM.

Turning to `CC[C@H](C)[C@H](NC(=O)[C@H](CC(C)C)NC(=O)[C@H](CO)NC(=O)[C@H](CO)NC(=O)[C@@H](N)[C@@H](C)O)C(=O)N[C@@H](CCCCN)C(=O)N[C@@H](CCC(N)=O)C(=O)N[C@@H](CC(N)=O)C(=O)N[C@@H](CCCCN)C(=O)N[C@@H](Cc1ccc(O)cc1)C(=O)O` [EBA175_0114] (H-TSSLIKQNKY-OH), the IC50 amounted to 37100 nM.

In the case of `C[C@@H](O)[C@H](NC(=O)[C@@H](N)Cc1ccccc1)C(=O)N[C@@H](Cc1ccc(O)cc1)C(=O)N[C@@H](CC(=O)O)C(=O)N[C@@H](CO)C(=O)N[C@@H](CCC(=O)O)C(=O)N[C@@H](CCC(=O)O)C(=O)N[C@@H](Cc1ccc(O)cc1)C(=O)N[C@@H](Cc1ccc(O)cc1)C(=O)O` [EBA175_1392] (H-FTYDSEEYY-OH), the IC50 came out at 136 nM.

Consider `CC[C@H](C)[C@H](NC(=O)[C@H](CCCNC(=N)N)NC(=O)[C@H](CCC(=O)O)NC(=O)[C@@H](NC(=O)[C@@H](N)[C@@H](C)O)[C@@H](C)O)C(=O)N[C@@H](CO)C(=O)N[C@@H](CC(N)=O)C(=O)N[C@@H](CC(N)=O)C(=O)N[C@@H](CCC(=O)O)C(=O)N[C@@H](Cc1ccc(O)cc1)C(=O)O` [EBA175_1084] (H-TTERISNNEY-OH), for which the IC50 came to 904 nM.

Still in this experiment, the particulars now being: allele A*0101; fluorescence polarization competition.
On to STDPHTNSNN [RIPR_0545], for which the “IC50 (nM), in vitro HLA binding affinity” value is on record as “Non-binder”.

The same experiment, now with this note: allele A*0101; fluorescence polarization competition; read-out: IC50 (nM), in vitro HLA binding affinity.
On to `N=C(N)NCCC[C@H](NC(=O)[C@@H](N)Cc1c[nH]cn1)C(=O)N[C@@H](CCC(=O)O)C(=O)N[C@@H](Cc1c[nH]cn1)C(=O)N1CCC[C@H]1C(=O)N[C@@H](CCCCN)C(=O)N[C@@H](CCC(=O)O)C(=O)N[C@@H](Cc1ccc(O)cc1)C(=O)N[C@@H](CCC(=O)O)C(=O)N[C@@H](Cc1ccc(O)cc1)C(=O)O` [AMA1_044] (H-HREHPKEYEY-OH), for which the IC50 came to 11100 nM.

`CC(C)C[C@H](N)C(=O)N[C@H](C(=O)N1CCC[C@H]1C(=O)N[C@H](C(=O)N[C@@H](C)C(=O)N[C@H](C(=O)NCC(=O)N[C@@H](CC(N)=O)C(=O)N[C@@H](CCC(N)=O)C(=O)N[C@@H](Cc1ccc(O)cc1)C(=O)O)[C@@H](C)O)C(C)C)[C@@H](C)O` [AMA1_166] (H-LTPVATGNQY-OH): the IC50 was 2560 nM.

With `CC[C@H](C)[C@H](N)C(=O)N1CCC[C@H]1C(=O)N[C@@H](CC(=O)O)C(=O)N[C@@H](CC(N)=O)C(=O)N[C@@H](CC(=O)O)C(=O)N[C@@H](CCCCN)C(=O)N[C@@H](CC(N)=O)C(=O)N[C@@H](CO)C(=O)N[C@@H](CC(N)=O)C(=O)N[C@@H](Cc1ccc(O)cc1)C(=O)O` [AMA1_225] (H-IPDNDKNSNY-OH), the IC50 was 14700 nM.

As for `CC[C@H](C)[C@H](NC(=O)[C@H](Cc1c[nH]cn1)NC(=O)[C@@H](NC(=O)[C@H](CCC(=O)O)NC(=O)[C@H](CC(=O)O)NC(=O)[C@H](CCC(=O)O)NC(=O)[C@H](CCC(=O)O)NC(=O)CN)[C@@H](C)O)C(=O)N[C@@H](Cc1ccc(O)cc1)C(=O)O` [CYRPA_070] (H-GEEDETHIY-OH), the IC50 worked out at 261000 nM.

Consider `CC[C@H](C)[C@H](NC(=O)[C@H](CCC(=O)O)NC(=O)[C@@H](NC(=O)[C@@H](N)CO)[C@@H](C)CC)C(=O)N[C@H](C(=O)N[C@@H](CCC(=O)O)C(=O)N[C@@H](CCCNC(=N)N)C(=O)N[C@@H](CO)C(=O)N[C@@H](CC(N)=O)C(=O)N[C@@H](Cc1ccc(O)cc1)C(=O)O)C(C)C` [AMA1_096] (H-SIEIVERSNY-OH), for which the IC50 amounted to 12100 nM.

As for `CC(C)C[C@H](NC(=O)[C@H](Cc1ccc(O)cc1)NC(=O)[C@H](C)NC(=O)[C@H](Cc1ccc(O)cc1)NC(=O)[C@H](CC(=O)O)NC(=O)[C@H](CC(N)=O)NC(=O)[C@@H](N)CCC(=O)O)C(=O)N[C@@H](CC(N)=O)C(=O)N[C@@H](CCCCN)C(=O)N[C@@H](Cc1ccc(O)cc1)C(=O)O` [RIPR_0059] (H-ENDYAYLNKY-OH), the IC50 came to 42200 nM.

As to `CC[C@H](C)[C@H](NC(=O)[C@@H]1CCCN1C(=O)[C@@H](NC(=O)[C@H](CC(=O)O)NC(=O)[C@H](CC(N)=O)NC(=O)[C@@H](N)Cc1ccccc1)C(C)C)C(=O)N[C@@H](CCCCN)C(=O)N[C@@H](CCSC)C(=O)N[C@@H](CCC(=O)O)C(=O)N[C@@H](Cc1ccc(O)cc1)C(=O)O` [RH5_505] (H-FNDVPIKMEY-OH), the IC50 was 498 nM.

For `CC[C@H](C)[C@H](NC(=O)[C@H](CO)NC(=O)[C@@H](N)CC(N)=O)C(=O)N[C@@H](CC(C)C)C(=O)N[C@H](C(=O)N[C@@H](CCCCN)C(=O)N1CCC[C@H]1C(=O)N[C@@H](CCC(=O)O)C(=O)N[C@@H](CCCCN)C(=O)N[C@@H](Cc1ccc(O)cc1)C(=O)O)[C@@H](C)CC` [CYRPA_311] (H-NSILIKPEKY-OH), the IC50 worked out at 109000 nM.

As to `CC[C@H](C)[C@H](NC(=O)[C@@H](NC(=O)[C@H](Cc1ccccc1)NC(=O)[C@H](CC(=O)O)NC(=O)[C@H](CC(C)C)NC(=O)[C@@H](N)Cc1c[nH]cn1)C(C)C)C(=O)N[C@H](C(=O)N1CCC[C@H]1C(=O)N[C@@H](Cc1c[nH]cn1)C(=O)N[C@@H](Cc1ccc(O)cc1)C(=O)O)[C@@H](C)CC` [RH5_170] (H-HLDFVIIPHY-OH), the IC50 worked out at 118000 nM.

With `CC(C)C[C@H](NC(=O)[C@@H](NC(=O)[C@H](CO)NC(=O)[C@@H](NC(=O)[C@@H](N)CC(=O)O)C(C)C)[C@@H](C)O)C(=O)N[C@@H](CC(N)=O)C(=O)N[C@@H](CC(=O)O)C(=O)N[C@@H](CCC(=O)O)C(=O)N[C@@H](Cc1ccc(O)cc1)C(=O)O` [CYRPA_282] (H-DVSTLNDEY-OH), the IC50 is 52200 nM.

Regarding `CC[C@H](C)[C@H](NC(=O)[C@H](Cc1ccc(O)cc1)NC(=O)[C@H](CCC(=O)O)NC(=O)[C@H](CC(=O)O)NC(=O)[C@H](CC(N)=O)NC(=O)[C@@H](N)CC(C)C)C(=O)N[C@H](C(=O)N[C@@H](CO)C(=O)N[C@@H](Cc1ccc(O)cc1)C(=O)O)C(C)C` [CYRPA_286] (H-LNDEYIVSY-OH), the IC50 is 28100 nM.

As to `CC(C)C[C@H](NC(=O)CNC(=O)[C@H](CC(=O)O)NC(=O)[C@H](CC(N)=O)NC(=O)[C@@H](NC(=O)[C@H](CC(N)=O)NC(=O)[C@@H](NC(=O)[C@@H](N)CC(N)=O)[C@@H](C)O)C(C)C)C(=O)N[C@@H](CCCCN)C(=O)N[C@@H](Cc1ccc(O)cc1)C(=O)O` [RH5_88] (H-NTNVNDGLKY-OH), the IC50 came out at 4120 nM.

Consider `CC[C@H](C)[C@H](NC(=O)CNC(=O)[C@H](CC(N)=O)NC(=O)[C@@H](NC(=O)[C@@H](N)CC(N)=O)[C@@H](C)O)C(=O)N[C@@H](CCCNC(=N)N)C(=O)N[C@@H](Cc1ccc(O)cc1)C(=O)N[C@@H](Cc1c[nH]cn1)C(=O)N[C@@H](Cc1ccc(O)cc1)C(=O)O` [RH5_352] (H-NTNGIRYHY-OH), for which the IC50 was determined as 4380 nM.

In the case of `C[C@H](N)C(=O)N[C@@H](CO)C(=O)N[C@@H](CC(=O)O)C(=O)N[C@@H](CCC(N)=O)C(=O)N1CCC[C@H]1C(=O)N[C@@H](CCCCN)C(=O)N[C@@H](CCC(N)=O)C(=O)N[C@@H](Cc1ccc(O)cc1)C(=O)N[C@@H](CCC(=O)O)C(=O)N[C@@H](CCC(N)=O)C(=O)O` [AMA1_346] (H-ASDQPKQYEQ-OH), the IC50 is 126000 nM.

In a further experiment the target is HLA-A*0201 (Homo sapiens, UniProt P04439, D140Y/D185E/D98H/E176V/E277Q/G131W/G231S/I119V/I121R/I166T/I218V/L300P/L318F/N151K/N90K/P208A/P217A/Q86G/Q94H/R138H/R169H/T345S). The experiment is described as follows: In vitro class I HLA binding assay (fluorescence polarization competition). The note with it: allele A*0201; cell-free competition, fluorescence polarization at 72 hours; Non-binder = no dose-dependent inhibition; read-out: IC50. The method, then: as §1
(In general: Fluorescence polarisation rises when a labelled molecule tumbles more slowly, as on binding a larger partner.)
`CC(C)C[C@H](NC(=O)[C@H](CC(N)=O)NC(=O)[C@H](CC(=O)O)NC(=O)[C@@H](NC(=O)[C@@H](NC(=O)[C@H](CCC(=O)O)NC(=O)[C@H](Cc1ccccc1)NC(=O)[C@H](CC(C)C)NC(=O)[C@@H](N)Cc1ccccc1)C(C)C)[C@@H](C)O)C(=O)O` [EBA175_1461] (H-FLFEVTDNL-OH): the IC50 stood at 269 nM.

Staying with this experiment, now noted: allele A*0201; fluorescence polarization competition; read-out: IC50 (nM), in vitro HLA binding affinity.
In the case of `CC[C@H](C)[C@H](NC(=O)[C@H](CC(C)C)NC(=O)[C@H](Cc1c[nH]cn1)NC(=O)[C@H](Cc1c[nH]cn1)NC(=O)[C@H](Cc1ccccc1)NC(=O)[C@@H](NC(=O)[C@@H](N)CC(N)=O)[C@@H](C)CC)C(=O)N[C@@H](Cc1ccc(O)cc1)C(=O)N[C@H](C(=O)O)C(C)C` [RH5_492] (H-NIFHHLIYV-OH), the IC50 came out at 2290 nM.

Regarding `CC[C@H](C)[C@H](NC(=O)[C@H](Cc1ccccc1)NC(=O)[C@H](CC(C)C)NC(=O)[C@@H](N)CO)C(=O)N[C@H](C(=O)N[C@@H](CO)C(=O)N[C@@H](CC(=O)O)C(=O)N[C@@H](Cc1c[nH]cn1)C(=O)N[C@@H](CC(C)C)C(=O)O)[C@@H](C)O` [RH5_467] (H-SLFITSDHL-OH), the IC50 amounted to 7120 nM.
